# In patent publication US9828413B2, “Vancomycin derivative, and preparation method and application thereof” (ACESYS PHARMA INC., priority 2013, dated 2017):
# How the values were obtained:
# [1] = tested on: Staphylococcus aureus Mu50; assay: In vitro activity assay, minimum inhibitory concentration (MIC), cup-plate method; format: cell-based; conditions: strain Mu50, trypticase soy broth, read-out: MIC values, Staphylococcus aureus Mu50
# Procedure: (§1) In vitro activity assay was performed according to Microbiological Identification of Antibiotics, Appendix XIA, Volume II, Chinese Pharmacopoeia 2010. Vancomycin-sensitive Staphylococcus aureus strains (Newman and Mu 50) were selected as the test strains, and trypticase soy broth was selected as the culture medium.
# [2] = tested on: Staphylococcus aureus Newman; assay: as above; format: cell-based; conditions: strain Newman, trypticase soy broth, read-out: MIC values, Staphylococcus aureus Newman
# Procedure: as §1
# [3] = physchem; conditions: 25 °C, water, thermodynamic from solid
Compound,MIC [1],MIC [2],solubility at 30 min [3]
CC(C)C[C@@H](N)C(=O)NC1C(=O)N[C@@H](CC(N)=O)C(=O)N[C@H]2C(=O)NC3C(=O)N[C@H](C(=O)N[C@@H](C(=O)O)c4cc(O)cc(O)c4-c4cc3ccc4O)[C@H](O)c3ccc(c(Cl)c3)Oc3cc2cc(c3OC2OC(CO)C(O)C(O)C2OC2CC(C)(NCC(OCc3ccc(-c4ccccc4)cc3)C(=O)O)C(O)C(C)O2)Oc2ccc(cc2Cl)[C@H]1O (stereo partly drawn) [Compound V53],2 µg/mL,< 0.125 µg/mL,20 mg/mL
CN[C@H](CC(C)C)C(=O)NC1C(=O)N[C@@H](CC(N)=O)C(=O)N[C@H]2C(=O)NC3C(=O)N[C@H](C(=O)N[C@@H](C(=O)O)c4cc(O)cc(O)c4-c4cc3ccc4O)[C@H](O)c3ccc(c(Cl)c3)Oc3cc2cc(c3OC2OC(CO)C(O)C(O)C2OC2CC(C)(NCC(OC)C(=O)O)C(O)C(C)O2)Oc2ccc(cc2Cl)[C@H]1O (stereo partly drawn) [Compound V27],64 µg/mL,16 µg/mL,20 mg/mL
CN[C@H](CC(C)C)C(=O)NC1C(=O)N[C@@H](CC(N)=O)C(=O)N[C@H]2C(=O)NC3C(=O)N[C@H](C(=O)N[C@@H](C(=O)O)c4cc(O)cc(O)c4-c4cc3ccc4O)[C@H](O)c3ccc(c(Cl)c3)Oc3cc2cc(c3OC2OC(CO)C(O)C(O)C2OC2CC(C)(NCC(OCc3ccccc3)C(=O)O)C(O)C(C)O2)Oc2ccc(cc2Cl)[C@H]1O (stereo partly drawn) [Compound V11],32 µg/mL,8 µg/mL,50 to 60 mg/mL
CC(C)C[C@@H](N)C(=O)NC1C(=O)N[C@@H](CC(N)=O)C(=O)N[C@H]2C(=O)NC3C(=O)N[C@H](C(=O)N[C@@H](C(=O)O)c4cc(O)cc(O)c4-c4cc3ccc4O)[C@H](O)c3ccc(c(Cl)c3)Oc3cc2cc(c3OC2OC(CO)C(O)C(O)C2OC2CC(C)(NCC(OCc3ccc(-c4ccc(Cl)cc4)cc3)C(=O)O)C(O)C(C)O2)Oc2ccc(cc2Cl)[C@H]1O (stereo partly drawn) [Compound V54],2 µg/mL,< 0.125 µg/mL,15 to 20 mg/mL
CN[C@H](CC(C)C)C(=O)N[C@@H]1C(=O)NC(CC(N)=O)C(=O)NC2C(=O)NC3C(=O)N[C@H](C(=O)NC(C(=O)O)c4cc(O)cc(O)c4-c4cc3ccc4O)[C@H](OC3CC(C)(N)C(O)C(C)O3)c3ccc(c(Cl)c3)Oc3cc2cc(c3OC2OC(CO)C(O)C(O)C2OC2CC(C)(NCC(OCc3ccc(-c4ccccc4Cl)cc3)C(=O)O)C(O)C(C)O2)Oc2ccc(cc2Cl)C1O (stereo partly drawn) [Compound V64],2 µg/mL,< 0.125 µg/mL,5 to 20 mg/mL
CCCCOC(CNC1(C)CC(OC2C(Oc3c4cc5cc3Oc3ccc(cc3Cl)[C@@H](O)[C@@H]3NC(=O)C(NC(=O)C5NC(=O)C(CC(N)=O)NC(=O)[C@@H](NC(=O)[C@@H](CC(C)C)NC)C(O)c5ccc(c(Cl)c5)O4)c4ccc(O)c(c4)-c4c(O)cc(O)cc4C(C(=O)O)NC3=O)OC(CO)C(O)C2O)OC(C)C1O)C(=O)OC (stereo partly drawn) [Compound V16],64 µg/mL,16 µg/mL,≥ 60 mg/mL
CN[C@H](CC(C)C)C(=O)N[C@@H]1C(=O)NC(CC(N)=O)C(=O)NC2C(=O)NC3C(=O)N[C@H](C(=O)NC(C(=O)O)c4cc(O)cc(O)c4-c4cc3ccc4O)[C@H](OC3CC(C)(N)C(O)C(C)O3)c3ccc(c(Cl)c3)Oc3cc2cc(c3OC2OC(CO)C(O)C(O)C2OC2CC(C)(NCC(OCc3ccc(Cl)cc3)C(=O)O)C(O)C(C)O2)Oc2ccc(cc2Cl)C1O (stereo partly drawn) [Compound V62],8 µg/mL,4 µg/mL,5 to 20 mg/mL
CN[C@H](CC(C)C)C(=O)NC1C(=O)N[C@@H](CC(N)=O)C(=O)N[C@H]2C(=O)NC3C(=O)N[C@H](C(=O)N[C@@H](C(=O)O)c4cc(O)cc(O)c4-c4cc3ccc4O)[C@H](O)c3ccc(c(Cl)c3)Oc3cc2cc(c3OC2OC(CO)C(O)C(O)C2OC2CC(C)(NCC(OCc3ccccc3)C(=O)OC)C(O)C(C)O2)Oc2ccc(cc2Cl)[C@H]1O (stereo partly drawn) [Compound V9],32 µg/mL,8 µg/mL,< 0.1 mg/mL
CCCCCCOC(CNC1(C)CC(OC2C(Oc3c4cc5cc3Oc3ccc(cc3Cl)[C@@H](O)[C@@H]3NC(=O)C(NC(=O)C5NC(=O)C(CC(N)=O)NC(=O)[C@@H](NC(=O)[C@H](N)CC(C)C)C(O)c5ccc(c(Cl)c5)O4)c4ccc(O)c(c4)-c4c(O)cc(O)cc4C(C(=O)O)NC3=O)OC(CO)C(O)C2O)OC(C)C1O)C(=O)OC (stereo partly drawn) [Compound V59],8 µg/mL,2 µg/mL,< 10 mg/mL
CN[C@H](CC(C)C)C(=O)NC1C(=O)N[C@@H](CC(N)=O)C(=O)N[C@H]2C(=O)NC3C(=O)N[C@H](C(=O)N[C@@H](C(=O)O)c4cc(O)cc(O)c4-c4cc3ccc4O)[C@H](O)c3ccc(c(Cl)c3)Oc3cc2cc(c3OC2OC(CO)C(O)C(O)C2OC2CC(C)(NCC(OCc3ccc(C)cc3)C(=O)O)C(O)C(C)O2)Oc2ccc(cc2Cl)[C@H]1O (stereo partly drawn) [Compound V23],8 µg/mL,2 µg/mL,> 8 mg/mL
CN[C@H](CC(C)C)C(=O)NC1C(=O)N[C@@H](CC(N)=O)C(=O)N[C@H]2C(=O)NC3C(=O)N[C@H](C(=O)N[C@@H](C(=O)O)c4cc(O)cc(O)c4-c4cc3ccc4O)[C@H](OC3CC(C)(N)C(O)C(C)O3)c3ccc(c(Cl)c3)Oc3cc2cc(c3OC2OC(CO)C(O)C(O)C2OC2CC(C)(NCC(OCc3ccccc3)C(=O)O)C(O)C(C)O2)Oc2ccc(cc2Cl)[C@H]1O (stereo partly drawn) [Compound V61],8 µg/mL,4 µg/mL,20 mg/mL
CN[C@H](CC(C)C)C(=O)N[C@@H]1C(=O)NC(CC(N)=O)C(=O)NC2C(=O)NC3C(=O)N[C@H](C(=O)NC(C(=O)O)c4cc(O)cc(O)c4-c4cc3ccc4O)[C@H](O)c3ccc(c(Cl)c3)Oc3cc2cc(c3OC2OC(CO)C(O)C(O)C2OC2CC(C)(NCC(OC)C(=O)OC)C(O)C(C)O2)Oc2ccc(cc2Cl)C1O (stereo partly drawn) [Compound V26],64 µg/mL,16 µg/mL,4.5 mg/mL
CN[C@H](CC(C)C)C(=O)NC1C(=O)N[C@@H](CC(N)=O)C(=O)N[C@H]2C(=O)NC3C(=O)N[C@H](C(=O)N[C@@H](C(=O)O)c4cc(O)cc(O)c4-c4cc3ccc4O)[C@H](O)c3ccc(c(Cl)c3)Oc3cc2cc(c3OC2OC(CO)C(O)C(O)C2OC2CC(C)(NCC(OCc3ccc(-c4ccc(Cl)cc4)cc3)C(=O)O)C(O)C(C)O2)Oc2ccc(cc2Cl)[C@H]1O (stereo partly drawn) [Compound V15],2 µg/mL,< 0.125 µg/mL,≥ 60 mg/mL
CN[C@H](CC(C)C)C(=O)N[C@@H]1C(=O)NC(CC(N)=O)C(=O)NC2C(=O)NC3C(=O)N[C@H](C(=O)NC(C(=O)O)c4cc(O)cc(O)c4-c4cc3ccc4O)[C@H](OC3CC(C)(N)C(O)C(C)O3)c3ccc(c(Cl)c3)Oc3cc2cc(c3OC2OC(CO)C(O)C(O)C2OC2CC(C)(NCC(OCc3ccc(-c4ccc(Cl)cc4)cc3)C(=O)O)C(O)C(C)O2)Oc2ccc(cc2Cl)C1O (stereo partly drawn) [Compound V63],2 µg/mL,< 0.125 µg/mL,5 to 20 mg/mL
CN[C@H](CC(C)C)C(=O)N[C@@H]1C(=O)NC(CC(N)=O)C(=O)NC2C(=O)NC3C(=O)N[C@H](C(=O)NC(C(=O)O)c4cc(O)cc(O)c4-c4cc3ccc4O)[C@H](O)c3ccc(c(Cl)c3)Oc3cc2cc(c3OC2OC(CO)C(O)C(O)C2OC2CC(C)(NCC(OCc3ccc(-c4ccccc4)cc3)C(=O)OC)C(O)C(C)O2)Oc2ccc(cc2Cl)C1O (stereo partly drawn) [Compound V25],8 µg/mL,4 µg/mL,< 5 mg/mL
CN[C@H](CC(C)C)C(=O)N[C@@H]1C(=O)NC(CC(N)=O)C(=O)NC2C(=O)NC3C(=O)N[C@H](C(=O)NC(C(=O)O)c4cc(O)cc(O)c4-c4cc3ccc4O)[C@H](O)c3ccc(c(Cl)c3)Oc3cc2cc(c3OC2OC(CO)C(O)C(O)C2OC2CC(C)(NCC(OCc3ccc(Cl)cc3)C(=O)O)C(O)C(C)O2)Oc2ccc(cc2Cl)C1O (stereo partly drawn) [Compound V21],2 µg/mL,< 0.125 µg/mL,> 8 mg/mL
CCCCCCCCCCOC(CNC1(C)CC(OC2C(Oc3c4cc5cc3Oc3ccc(cc3Cl)[C@@H](O)[C@@H]3NC(=O)C(NC(=O)C5NC(=O)C(CC(N)=O)NC(=O)[C@@H](NC(=O)[C@H](N)CC(C)C)C(O)c5ccc(c(Cl)c5)O4)c4ccc(O)c(c4)-c4c(O)cc(O)cc4C(C(=O)O)NC3=O)OC(CO)C(O)C2O)OC(C)C1O)C(=O)O (stereo partly drawn) [Compound V68],8 µg/mL,4 µg/mL,5 to 10 mg/mL
CN[C@H](CC(C)C)C(=O)N[C@@H]1C(=O)NC(CC(N)=O)C(=O)NC2C(=O)NC3C(=O)N[C@H](C(=O)NC(C(=O)O)c4cc(O)cc(O)c4-c4cc3ccc4O)[C@H](O)c3ccc(c(Cl)c3)Oc3cc2cc(c3OC2OC(CO)C(O)C(O)C2OC2CC(C)(NCC(OCc3ccc(Cl)cc3)C(=O)OC)C(O)C(C)O2)Oc2ccc(cc2Cl)C1O (stereo partly drawn) [Compound V20],2 µg/mL,< 0.125 µg/mL,< 5 mg/mL
CCCCOC(CNC1(C)CC(OC2C(Oc3c4cc5cc3Oc3ccc(cc3Cl)[C@@H](O)[C@@H]3NC(=O)C(NC(=O)[C@@H]5NC(=O)[C@H](CC(N)=O)NC(=O)C(NC(=O)[C@@H](CC(C)C)NC)[C@H](O)c5ccc(c(Cl)c5)O4)c4ccc(O)c(c4)-c4c(O)cc(O)cc4[C@H](C(=O)O)NC3=O)OC(CO)C(O)C2O)OC(C)C1O)C(=O)O (stereo partly drawn) [Compound V19],> 128 µg/mL,64 µg/mL,50 to 60 mg/mL
CN[C@H](CC(C)C)C(=O)NC1C(=O)N[C@@H](CC(N)=O)C(=O)N[C@H]2C(=O)NC3C(=O)N[C@H](C(=O)N[C@@H](C(=O)O)c4cc(O)cc(O)c4-c4cc3ccc4O)[C@H](O)c3ccc(c(Cl)c3)Oc3cc2cc(c3OC2OC(CO)C(O)C(O)C2OC2CC(C)(NCC(OCc3ccc(-c4ccccc4)cc3)C(=O)O)C(O)C(C)O2)Oc2ccc(cc2Cl)[C@H]1O (stereo partly drawn) [Compound V24],8 µg/mL,4 µg/mL,> 10 mg/mL
CCCCCCCCCCOC(CNC1(C)CC(OC2C(Oc3c4cc5cc3Oc3ccc(cc3Cl)[C@@H](O)[C@@H]3NC(=O)C(NC(=O)C5NC(=O)C(CC(N)=O)NC(=O)[C@@H](NC(=O)[C@@H](CC(C)C)NC)C(O)c5ccc(c(Cl)c5)O4)c4ccc(O)c(c4)-c4c(O)cc(O)cc4C(C(=O)O)NC3=O)OC(CO)C(O)C2O)OC(C)C1O)C(=O)O (stereo partly drawn) [Compound V67],4 µg/mL,2 µg/mL,5 to 10 mg/mL
